# Assay results from patent US12171754B2, “Combinational uses of nitroxoline and its analogues with chemotherapies and immunotherapies in the treatment of cancers” (Jiangsu Yahong Meditech Co., Ltd., priority 2016, dated 2024).
# Several values for one entry are separate records, joined by “and”; a condition that tells them apart may be missing. Equal values may be shown once. Read-outs that look alike come from different tables or passages of the source.
# Tests used:
# [1] = system: human bladder cancer cell line 5637; experiment: MTT assay, inhibition of cell growth (single drugs and combinations with NIT; CI by Chou's method); format: cell-based; settings: for IC25 / IC75: 5637; for Average Fa: 96 hours
# Experimental: (§1) The combinational studies of NIT and chemotherapies were conducted by mixing NIT with individual chemotherapies at five to seven concentration levels, with the medium concentration levels close to their IC50 values. The combinational indices (CIs) were calculated and plotted according to Ting-Chao Chou's method (19) to estimate the combinational effects, including synergism, addition and antagonism.
# (§2) Compounds: NIT, carboplatin, paclitaxel, epirubicin and pirarubicin were purchased from suppliers, and were dissolved in the DMSO to stock solution and store in −20° C. Before use, the stock solutions were diluted to different concentrations of working solutions. The DMSO concentration in working solutions was less than 1%. All cancer cell lines were purchased from vendors.
# (§3) An MTT assay was used as the test method. An appropriate amount of cells (2×10^3/100 μL) was seeded into 96-well plate and incubated at 37° C. in a CO2 incubator overnight for cell adhesion and adaptation. Cancer cells were also seeded in a separate 96-well plate (plate T0), 12 wells/cell line, to measure the OD value at time zero (T0). After overnight adaptation, 20 μL MTT reagent were added per well (final concentration 0.5 mg/mL) to plate T0 and incubated at 37° C. for 4 hours. The supernatant medium was pipetted out, and about 150 μL DMSO were added per well. The plate was read on a plate reader using 550 nm as the test wavelength and 630 nm as the reference wavelength to obtain the OD value at time zero (T0). After overnight adaptation, the test compounds and vehicle were added into the plate to treat the cells. The test compounds were tested at 6 concentrations in triplicate wells. The plate was incubated at 37° C. in a CO2 incubator for 48 h. A longer incubation time can be used. 20 μL MTT reagent were added per well and incubated at 37° C. for 4 h. the supernatant medium was pipetted out, and about 150 μL DMSO were added per well. The plate was read on a plate reader (TECAN, Infinite M200) using about […] as the test wavelength and about […] as the reference wavelength. Cell viability (%) was calculated in two ways: % Viability=[(T−B)/(C−B)]×100% % Viability=[(T−C0)/(C−C0)]×100%
# (§4) T: Mean Absorbance of Treatment at various hours;
# (§5) C: Mean Absorbance of negative Control at various hours;
# (§6) B: Mean Absorbance of blank well (only culture medium) at various hours;
# (§7) C0: Mean Absorbance of negative Control at 0 h.
# (§8) The results are expressed as mean±SD. The IC50 was calculated by XLfit software. The test for each compound was independently repeated once.
# [2] = system: human liver cancer cell line HepG2; experiment: as above; format: cell-based
# Experimental: as §1, §2, §3, §4, §5, §6, §7, §8
# [3] = system: MBT-2-Luc bladder cancer; set-up: concentration or dose not given beside the values; settings: mouse, in vivo
# [4] = system: RM-9-Luc prostate cancer; experiment: Oral NIT with intraperitoneal anti-PD-1 antibody in orthotopic mouse RM-9-Luc prostate cancer model; format: in vivo
# Experimental: Eight mice were analyzed for each group.
# A low abdominal transverse incision was made, and the bilateral dorsal lobes of prostate were exposed. Following the trypsinization of RM-9-Luc cells, 5.0×10^3 cells in 10 μl of Hanks' balanced salt solution were injected using a new 24-gauge catheter directly into the right dorsal lobe of the prostate. A clearly recognizable bleb within the injected prostatic lobe was considered as a sign of a technically satisfactory injection. The abdominal wound was closed with stainless steel clips (Autoclip; Becton Dickinson Co., Sparks, Md.).
# [5] = system: MBT-2-Luc bladder cancer; experiment: Oral NIT with intraperitoneal anti-PD-1 antibody in orthotopic mouse MBT-2-Luc bladder cancer model
# Experimental: The tumor volume of each mouse was determined by region-of-interest analysis of total photons per second. Five mice were analyzed in each group.
# To establish the orthotopic bladder cancer tumors, the mice were anesthetized by the intraperitoneal (i.p.) administration of ketamine/xylazine solution at a dose of 0.1 ml/10 g body weight (K113; Sigma-Aldrich Japan G.K., Tokyo, Japan). A 24-gauge Teflon intravenous catheter was subsequently inserted through the urethra into the bladder or prostate using an inert lubricant. In order to prepare the bladder for tumor implantation, a brief acid exposure, followed by alkaline neutralization, promoted a chemical lesion on the bladder wall, performed by the intravesical instillation of 8 μl 1 MOI silver nitrate. This led to the formation of an adequate and controlled diffuse bladder wall lesion. After 15 sec, the content was washed out by transurethral infusion of PBS. […]
# (§9) The mice received i.p. injections of luciferin, and the luciferase expression in the tumors was measured by the Xenogen IVIS200 System.
# Additivity was determined using the fractional product concept or Bliss Independence model: Exy=Ex+Ey−(ExEy), where EXY is the additive effect of the 2 compounds x and y as calculated by the product of the individual effect of the 2 compounds, Ex and Ey.
# [6] = system: MBT-2-Luc bladder cancer; experiment: Oral NIT with intravesical MMC in orthotopic mouse MBT-2-Luc bladder cancer model; settings: NIT 15 mg/kg Bid oral, MMC 1 mg/ml Q7d intravesical, single drug or actual observed value of combination; for Survival Proportion: end of the experiment (45 days)
# Experimental: The tumor volume was analyzed by the Xenogen IVIS200 system following the indicated treatment. […] The tumor volume of each mouse was determined by region-of-interest analysis of total photons per second. Six mice were analyzed in each group.
# To establish the orthotopic bladder cancer tumors, the mice were anesthetized by the intraperitoneal (i.p.) administration of ketamine/xylazine solution at a dose of 0.1 ml/10 g body weight (K113; Sigma-Aldrich Japan G.K., Tokyo, Japan). A 24-gauge Teflon intravenous catheter was subsequently inserted through the urethra into the bladder or prostate using an inert lubricant. In order to prepare the bladder for tumor implantation, a brief acid exposure, followed by alkaline neutralization, promoted a chemical lesion on the bladder wall, performed by the intravesical instillation of 8 μl 1 MOI silver nitrate. This led to the formation of an adequate and controlled diffuse bladder wall lesion. After 15 sec, the content was washed out by transurethral infusion of PBS. The first catheter was removed and a new 24-gauge catheter was inserted in the urethra for intravesical instillation of MBT-2-Luc cells (5×10^4 cells mixed with 0.1 ml PBS) and retained for 1.5 h by stitches. Every 10 days, tumor imaging was performed following i.p. administration of luciferin using bioluminescence technology (Xenogen IVIS200 system; Xenogen Corporation, Hopkinton, Mass., USA).
# For the NIT and MMC combination, the mice carrying orthotopic bladder cancer tumors were randomly divided into four groups: control (PBS), NIT, MMC, and the combination of NIT and MMC.
# as §9
# Additivity was determined using the fractional product concept or Bliss Independence model: Exy=Ex+Ey−(ExEy), where EXY is the additive effect of the 2 compounds x and y as calculated by the product of the individual effect of the 2 compounds, Ex and Ey. Synergy was established when the actual observed tumor inhibition value was greater than the expected tumor inhibition value determined by the Bliss Independence model (20).
# [7] = Homo sapiens, inhibition of cell growth, 5637 (Table 9), read-out: IC50
# [8] = Homo sapiens, cell line 5637, read-out: IC50 for inhibition of cell growth
smiles,measurement,setting,value
"COc1cccc2c1C(=O)c1c(O)c3c(c(O)c1C2=O)C[C@@](O)(C(=O)CO)C[C@@H]3O[C@H]1C[C@H](N)[C@H](O[C@@H]2CCCCO2)[C@H](C)O1 [Pirarubicin, pirarubicin]",IC50,[1]; [7],0.143 µg/mL
same,IC25,[1]; inhibition of cell growth,0.09658 µg/mL
same,IC75,[1]; inhibition of cell growth,0.21958 µg/mL
"CC(=O)O[C@H]1C(=O)[C@@]2(C)[C@H]([C@H](OC(=O)c3ccccc3)[C@]3(O)C[C@H](OC(=O)[C@H](O)[C@@H](NC(=O)c4ccccc4)c4ccccc4)C(C)=C1C3(C)C)[C@]1(OC(C)=O)CO[C@@H]1C[C@@H]2O [Paclitaxel, paclitaxel]",IC50,"[2]; Homo sapiens, cell line HepG2",0.0025 µg/mL
same,Inhibition Rates,"[2]; Taxol 0.5 ng/ml, 112 hours",5.8%
same,Inhibition Rates,"[2]; Taxol 1 ng/ml, 112 hours",14.0%
same,Inhibition Rates,"[2]; Taxol 2 ng/ml, 112 hours",47.5%
same,Inhibition Rates,"[2]; Taxol 4 ng/ml, 112 hours",75.8%
same,Inhibition Rates,"[2]; Taxol 8 ng/ml, 112 hours",90.4%
same,Inhibition Rates,"[2]; Taxol 16 ng/ml, 112 hours",92.7%
same,IC50,[1]; [8],0.000289 µg/mL
same,Inhibition Rates,"[1]; Taxol 0.125 ng/ml, 112 hours",11.9%
same,Inhibition Rates,"[1]; Taxol 0.25 ng/ml, 112 hours",47.6%
same,Inhibition Rates,"[1]; Taxol 0.5 ng/ml, 112 hours",84.3%
same,Inhibition Rates,"[1]; Taxol 1 ng/ml, 112 hours",90.3%
same,Inhibition Rates,"[1]; Taxol 2 ng/ml, 112 hours",96.8%
"O=[N+]([O-])c1ccc(O)c2ncccc12 [NIT, Nitroxoline]",inhibition at 0.5 µg/mL,"[2]; Homo sapiens, HepG2, NIT 0.5 μg/ml, 120 hours, read-out: Inhibition Rates",3.2%
same,inhibition at 1 µg/mL,"[2]; Homo sapiens, HepG2, NIT 1 μg/ml, 120 hours, read-out: Inhibition Rates",21.7%
same,inhibition at 2 µg/mL,"[2]; Homo sapiens, HepG2, NIT 2 μg/ml, 120 hours, read-out: Inhibition Rates",80.3%
same,inhibition at 4 µg/mL,"[2]; Homo sapiens, HepG2, NIT 4 μg/ml, 120 hours, read-out: Inhibition Rates",90.5%
same,inhibition at 8 µg/mL,"[2]; Homo sapiens, HepG2, NIT 8 μg/ml, 120 hours, read-out: Inhibition Rates",93.5%
same,inhibition at 16 µg/mL,"[2]; Homo sapiens, HepG2, NIT 16 μg/ml, 120 hours, read-out: Inhibition Rates",95.3%
same,IC50,"[2]; Homo sapiens, cell line HepG2",1.86 µg/mL
same,inhibition at 0.25 µg/mL,"[1]; Homo sapiens, NIT 0.25 μg/ml, 120 hours, read-out: Inhibition Rates",18%
same,inhibition at 0.5 µg/mL,"[1]; Homo sapiens, NIT 0.5 μg/ml, 120 hours, read-out: Inhibition Rates",52%
same,inhibition at 1 µg/mL,"[1]; Homo sapiens, NIT 1 μg/ml, 120 hours, read-out: Inhibition Rates",79.9%
same,inhibition at 2 µg/mL,"[1]; Homo sapiens, NIT 2 μg/ml, 120 hours, read-out: Inhibition Rates",92.3%
same,inhibition at 4 µg/mL,"[1]; Homo sapiens, NIT 4 μg/ml, 120 hours, read-out: Inhibition Rates",95.5%
same,IC50,[1]; [8],0.517 µg/mL
same,Average Fa,"[1]; NIT 625, Mitomycin C 0 (units not given)",−7.2%
same,Average Fa,"[1]; NIT 1250, Mitomycin C 0 (units not given)",−3.8%
same,Average Fa,"[1]; NIT 2500, Mitomycin C 0 (units not given)",23.3%
same,Average Fa,"[1]; NIT 5000, Mitomycin C 0 (units not given)",74.3%
same,Average Fa,"[1]; NIT 10000, Mitomycin C 0 (units not given)",94.0%
same,Survival Proportion,[3],0.4
same,Tumor Growth Inhibition,[3],0.52 and 0.35
same,Tumor Weight Proportion,"[4]; NIT 15 mg/kg bid p.o., anti-PD-1 10 mg/kg q4d intraperitoneal, single drug or actual observed value of combination",0.37
same,tumor growth inhibition rate,"[4]; tumor volume, FIG. 12B, NIT 15 mg/kg oral, anti-PD-1 10 mg/kg intraperitoneal",52%
same,Tumor Growth Inhibition,"[4]; tumor volume, NIT 15 mg/kg bid p.o., anti-PD-1 10 mg/kg q4d intraperitoneal, single drug or actual observed value of combination",0.52
same,tumor inhibition by tumor weight,"[4]; tumor weight, FIG. 12D, NIT 15 mg/kg oral, anti-PD-1 10 mg/kg intraperitoneal",37%
same,Tumor Growth Inhibition,"[5]; NIT 15 mg/kg bid p.o., anti-PD-1 10 mg/kg q5d intraperitoneal, single drug or actual observed value of combination",0.31
same,tumor inhibition rate,"[5]; NIT 15 mg/kg oral, anti-PD-1 10 mg/kg intraperitoneal, FIG. 11B",31%
same,Tumor Growth Inhibition,[6],0.33
same,Survival Proportion,[6],0.33
"N.N.O=C([O-])C1(C(=O)[O-])CCC1.[Pt+2] [Carboplatin, carboplatin]",Inhibition Rates,"[2]; Carbo 4 μg/ml, 120 hours",38.9%
same,Inhibition Rates,"[2]; Carbo 8 μg/ml, 120 hours",70.7%
same,Inhibition Rates,"[2]; Carbo 16 μg/ml, 120 hours",85.2%
same,Inhibition Rates,"[2]; Carbo 32 μg/ml, 120 hours",89.1%
same,Inhibition Rates,"[2]; Carbo 64 μg/ml, 120 hours",93.0%
same,Inhibition Rates,"[2]; Carbo 128 μg/ml, 120 hours",93.9%
same,IC50 for inhibition of cell growth,[2]; cell line HepG2,3.687 µg/mL
same,Inhibition Rates,"[1]; Carbo 0.5 μg/ml, 120 hours",31.5%
same,Inhibition Rates,"[1]; Carbo 1 μg/ml, 120 hours",53.7%
same,Inhibition Rates,"[1]; Carbo 2 μg/ml, 120 hours",69.9%
same,Inhibition Rates,"[1]; Carbo 4 μg/ml, 120 hours",88.1%
same,Inhibition Rates,"[1]; Carbo 8 μg/ml, 120 hours",91.5%
same,IC50 for inhibition of cell growth,[1]; cell line 5637,0.917 µg/mL
"COc1cccc2c1C(=O)c1c(O)c3c(c(O)c1C2=O)C[C@@](O)(C(=O)CO)C[C@@H]3O[C@H]1C[C@H](N)[C@@H](O)[C@H](C)O1 [Epirubicin, epirubicin]",IC50,[1]; [7],0.0452 µg/mL
same,IC25,[1]; inhibition of cell growth,0.03497 µg/mL
same,IC75,[1]; inhibition of cell growth,0.06393 µg/mL
"CO[C@@]12[C@H](COC(N)=O)C3=C(C(=O)C(C)=C(N)C3=O)N1C[C@@H]1N[C@@H]12 [Mitomycin C, mitomycin C]",Average Fa,"[1]; NIT 0, Mitomycin C 3.13 (units not given)",1.6%
same,Average Fa,"[1]; NIT 0, Mitomycin C 12.5 (units not given)",27.7%
same,Average Fa,"[1]; NIT 0, Mitomycin C 50 (units not given)",77.9%
same,Average Fa,"[1]; NIT 0, Mitomycin C 200 (units not given)",79.4%
same,IC25,[1]; inhibition of cell growth,0.04836 µg/mL
same,IC75,[1]; inhibition of cell growth,0.53662 µg/mL
same,IC50,"[1]; inhibition of cell growth, 5637 (Table 9)",0.15253 µg/mL
same,Tumor Growth Inhibition,[6],0.56
same,Survival Proportion,[6],0.57
